This assay concerns IFN-γ. Format: in vivo, C57BL/6 mice. The following applies: 72 h supernatant of blood cell cultures one week after last booster; ESAT-6 10 µg/dose, three vaccinations.

Molecules are shown by their SMILES.

Regarding `CCCCCCCCCCCCCCCCCC[N+](C)(C)CCCCCCCCCCCCCCCCCC.[Br-]` [DDA, dimethyl dioctadecyl ammonium bromide], the “ESAT-6 specific recall response, IFN-γ, Expt.I” value was under 50 pg/mL.

Values taken from EP1183044B1, “ADJUVANT COMBINATIONS FOR IMMUNIZATION AND VACCINES” (priority 1999, dated 2000).
